# Measured values published in ChEMBL document CHEMBL5614451, “Structure-Activity Relationship of Oxacyclo- and Triazolo-Containing Respiratory Syncytial Virus Polymerase Inhibitors” (ACS Med Chem Lett, 2024).
# What was measured:
# [1] = Inhibition of RSV RdRp L/P measured after 120 mins by SPA; design: species or system Respiratory syncytial virus
# [2] = test system: Respiratory syncytial virus; assay: Antiviral activity against RSV A2 expressing e-GFP infected in human HeLa cells incubated for 3 days by […]; format: functional, organism-based; settings: 72 h
# [3] = Cytotoxicity against human HeLa cells incubated for 3 days by ATPlite analysis; format: toxicity, cell-based; settings: time 3 day
# [4] = Intrinsic clearance in human liver microsome at 1 uM preincubated for 5 mins followed by NADPH addition measured upto 60 mins by LC-MS/MS analysis; format: ADME; settings: liver microsomes, time 65 min, read-out: CLH
# [5] = Intrinsic clearance in rat liver microsome at 1 uM preincubated for 5 mins followed by NADPH addition measured upto 60 mins by LC-MS/MS analysis; format: ADME; settings: liver microsomes, time 65 min, read-out: CLH
# [6] = Inhibition of RSV RdRp L/P; design: species or system Respiratory syncytial virus
# [7] = test system: Respiratory syncytial virus; assay: Antiviral activity against RSV; format: functional, organism-based; settings: human respiratory syncytial virus
SMILES,IC50 [1] [nM],EC50 [2] [nM],microsomal CLint at 1 µM [4] [µL/min/mg],microsomal CLint at 1 µM [5] [µL/min/mg],IC50 [6] [nM],EC50 [7] [nM],CC50 at 72 h [3] [nM]
COc1cc(C(=O)NCC2(c3cc(C(C)(C)O)c(F)c(-c4ccc(F)cc4)n3)CC(=O)CO2)cc2cc(C)nnc12 (stereo unspecified),2.5,18,126,–,–,–,> 5000
COc1cc(C(=O)NCC2(c3cc(C(C)(C)O)c(F)c(-c4ccc(F)cc4)n3)CCCO2)cc2cc(C)nnc12 (stereo unspecified),0.8,0.73,> 20,–,–,–,18000
COc1cc(-c2cn(CC3(c4cc(C(C)(C)O)c(F)c(-c5ccc(F)cc5)n4)CCO3)nn2)cc2cccnc12 (stereo unspecified),4.1,10,54.2,42.7,–,–,23600
COc1cc(C(=O)NCC(=O)c2cc(C(C)(C)O)c(F)c(-c3ccc(F)cc3)n2)cc2cc(C)nnc12,3.4,6.5,9.5,–,–,–,31000
COc1cc(-c2cn(CC3(c4cc(C(C)(C)O)c(F)c(-c5ccc(F)cc5)n4)CCCO3)nn2)cc2cccnc12 (stereo unspecified),22,108,> 347,–,–,–,> 5000
COc1cc(C(=O)NCC(O)(c2cc(C(C)(C)O)c(F)c(-c3ccc(F)cc3)n2)C(F)(F)F)cc2cccnc12 (stereo unspecified),0.63,11,12.1,168,–,–,16000
COc1cc(C(=O)NCC2(c3cc(C(C)(C)O)c(F)c(-c4ccc(F)cc4)n3)OCCC2=O)cc2cc(C)nnc12 (stereo unspecified),0.1,0.22,110,–,–,–,> 5000
COc1cc(C(=O)NCC2(c3cc(C(C)(C)O)c(F)c(-c4ccc(F)cc4)n3)CC(O)CO2)cc2cc(C)nnc12 (stereo unspecified),1.9,17,14.6,–,–,–,> 5000
COc1cc(C(=O)NC[C@](O)(c2cc(C(C)(C)O)c(F)c(-c3ccc(F)cc3)n2)C(F)(F)F)cc2cc(C)nnc12,–,–,–,–,0.29,0.38,–
COc1cc(-c2cn(CC(=O)c3cc(C(C)(C)O)c(F)c(-c4ccc(F)cc4)n3)nn2)cc2cccnc12,77,200,14.3,10.8,–,–,> 50000
COc1cc(C(=O)NCC2(c3cc(C(C)(C)O)c(F)c(-c4ccc(F)cc4)n3)CC(F)(F)CO2)cc2cc(C)nnc12 (stereo unspecified),0.78,2.3,117,–,–,–,> 5000

# Continued by falling IC50 [1], values first:
IC50 [1] [nM],EC50 [2] [nM],microsomal CLint at 1 µM [4] [µL/min/mg],microsomal CLint at 1 µM [5] [µL/min/mg],IC50 [6] [nM],EC50 [7] [nM],SMILES,CC50 at 72 h [3] [nM]
44,170,> 347,–,–,–,COc1cc(C(=O)NCC2(c3cc(C(C)(C)O)c(F)c(-c4ccc(F)cc4)n3)CCCCO2)cc2cc(C)nnc12 (stereo unspecified),> 25000
16,74,< 7.7,< 7.7,–,–,COc1cc(-c2cn(C[C@](O)(c3cc(C(C)(C)O)c(F)c(-c4ccc(F)cc4)n3)C(F)(F)F)nn2)cc2cccnc12,13000
1.9,0.13,18.4,–,–,–,COc1cc(C(=O)NCC2(c3cc(C(C)(C)O)c(F)c(-c4ccc(F)cc4)n3)OCCC2O)cc2cc(C)nnc12 (stereo unspecified),> 5000
0.55,0.41,> 347,–,–,–,COc1cc(C(=O)NCC2(c3cc(C(C)(C)O)c(F)c(-c4ccc(F)cc4)n3)OCCC23CC3)cc2cc(C)nnc12 (stereo unspecified),> 5000
0.25,1.2,13.3,–,–,–,COc1cc(C(=O)NCC2(c3cc(C(C)(C)O)c(F)c(-c4ccc(F)cc4)n3)OCCO2)cc2cc(C)nnc12,> 50000
